According to patent publication EP4745151A1, “FIBROBLAST ACTIVATION PROTEIN LIGAND AND USE THEREOF” (Jiangsu Hengrui Pharmaceuticals Co., Ltd., priority 2023, dated 2025):
Like-named read-outs stand apart in the source and are kept apart here. Numbered stars: 1 amine (or outer) side, 2 acyl side, 3 side chain; on linkers, the order of the positions; unused ones are H or OH. Bridge positions count the residues as written; N and C are the ends. Square brackets hold non-standard residues; d marks the D form. Peptide text beside a SMILES is read from it. * marks the point of attachment. TBMB(SCH2CH2NH-DOTA) = O=C(O)CN1CCN(CC(=O)O)CCN(CC(=O)NCCSCc2cc(C[*:1])cc(C[*:2])c2)CCN(CC(=O)O)CC1; Phe(2-CF3) = N[C@@H](Cc1ccccc1C(F)(F)F)C(=O)O; Hyp = O=C(O)[C@@H]1C[C@@H](O)CN1; Hexanoyl = CCCCCC(=O)*; Aib = CC(C)(N)C(=O)O

Legend:
U-87 MG cells [1] = conditions: mouse, in vivo
Procedure: (§1) Experimental animals: Germline: B-NDG (Biocytogen Jiangsu Co., Ltd.); Age: 5-8 weeks old; Body weight: 20-24 g.
(§2) A sufficient quantity of U-87 MG cells was prepared and inoculated into the posterior position of the right forelimb of B-NDG mice in an inoculation volume of 100 µl, containing 50% Matrigel and 5 × 10^6 cells. After inoculation, the tumour volume and animal body weight were monitored twice a week. Model mice with a tumour volume between 200 and 500 m^3 were selected for enrolment in this experiment and randomly grouped on the basis of tumour volume.

U-87 MG cells [2] = assay: In vivo efficacy experiment in U-87 MG model mice; set-up: species or system B-NDG mice
Procedure: A total of 90 mice were inoculated. When the tumour in the mice grew to about […], 40 mice with uniform tumour sizes were selected for study enrolment.
The administration regimen was as follows: • Route of administration: tail vein injection; • Administration volume: 0.03-0.07 mL/animal; • Administration frequency and dose: The control group was given PBS, the ^177Lu-FAP-2286 group was given a single dose of 0.8 mCi/animal, the ^177Lu-DOTA-09 0.4mCi group was given a single dose of 0.4 mCi/animal, the ^177Lu-DOTA-09 0.8 mCi group was given a single dose of 0.8 mCi/animal, the ^177Lu-DOTA-09 0.8mCi×2 group was given two doses of 0.8 mCi/animal, with an administration interval of 35 days. Each group included eight animals. The administration time and administration activity of each mouse were recorded in detail.
After tumour modelling, the tumour size was observed. On the day before administration or the day of administration, the tumour volume was measured using a digital calliper, and the animal body weight was recorded. The animals were evenly divided into five groups on the basis of tumour volume, as follows: control group, ^177Lu-FAP-2286 0.8 mCi group, ^177Lu-DOTA-09 0.4 mCi group, ^177Lu-DOTA-09 0.8 mCi group, and ^177Lu-DOTA-09 0.8 mCi*2 group, with eight animals in each group.
On the day of administration, the test sample was taken for preparation (the stock solution of the test sample was directly used), and the activity of the prepared solution was measured.
From the second day after administration, the stage of tumour and body weight measurement began. The tumour and body weight measurement was performed at least twice a week. During each measurement, the long and short diameters of the tumour were recorded. The measurements were kept at the same location as possible. The abnormalities and deaths of the animals were recorded in time. […] The tumour volume was calculated as follows: tumour volume (mm^3) = long diameter × short diameter × short diameter × 0.52.

U-87 MG cells [3] = assay: PET/SPECT imaging test of labelled compounds in U-87 MG tumour-bearing mice; conditions: for Tumour uptake: 177Lu-labelled
Procedure: as §1, §2

[4] = as above; conditions: B-NDG, mouse, tumour and kidney, iv, total radioactivity
Procedure: as §1, §2

[5] = rat, in vivo
Procedure: (§3) Experimental animals: Germline: SD rat (Beijing Vital River Laboratory Animal Technology Co., Ltd.); Age: 5-6 weeks old; Body weight: 100-150 g.
(§4) • 1) Empty tubes for γ-counting were weighed and labelled in advance. • 2) After the test sample was injected into the tail vein of rats, animal blood samples were collected from the orbit at 2 min, 5 min, 15 min, 30 min, 1 h, 2 h, 4 h, 6 h, 24 h, 48 h and 72 h. The sample tubes containing blood were weighed. • 3) The net weight of the blood was calculated, and the radioactive count of the collected blood was determined using a γ-counter. • 4) The distribution of the labelled compound in the blood of rats at different time points was determined. The test sample was accurately diluted 100-fold, and 0.5 ml of the dilution was added to a counting tube to serve as a 1% ID standard (i.e., one percent of the injected dose). The radioactive counts of both the 1% ID standard and the biological samples were simultaneously determined using the γ-counter. • 5) The pharmacokinetic parameters were calculated using DAS software.
(§5) Data obtained from rat blood was expressed as the percentage of radioactive count per gram of blood relative to the total dose (radioactive count) (%ID/g). Specific calculation formula: [formula]
(§6) At the same time, the drug concentration in the blood was calculated on the basis of the radioactive count in the blood. Specific calculation formula: Plasma concentration (μCi/mL) = ((CPMBlood/CPMTotal administered dose) × D (μCi)Administered dose)/(w (g) Blood/i (g/mL)Blood density) [formula]

[6] = Plasma concentration (pharmacokinetic) experiment of 177Lu-labelled compounds; conditions: for tissue uptake: SD, rat, whole blood, iv, total radioactivity
Procedure: as §3, §4, §5, §6

With `CCCCCC(=O)N[C@H]1CSCc2cc(CSCCNC(=O)CN3CCN(CC(=O)O)CCN(CC(=O)O)CCN(CC(=O)O)CC3)cc(c2)CSC[C@@H](C(=O)O)NC(=O)[C@H](Cc2ccccc2C(F)(F)F)NC(=O)[C@H](CCC(N)=O)NC(=O)[C@H]([C@@H](C)O)NC(=O)[C@@H]2C[C@@H](O)CN2C(=O)[C@@H]2CCCN2C(=O)C(C)(C)NC1=O` [^177Lu-DOTA-09, metal not drawn] (Hexanoyl-C[Aib]P[Hyp]TQ[Phe(2-CF3)]C-OH; linker 1-8 via TBMB(SCH2CH2NH-DOTA)) the “course of tumour uptake / intratumoral retention” value (U-87 MG cells [1]) was “decreased slowly”, the “body weight changes of mice” value (U-87 MG cells [2]; during administration, all dose groups) was “No significant body weight changes” and the Tumour uptake (U-87 MG cells [3]; Table 5, 0.5 h) was 29.52±2.98. It also gave a Tumour uptake (U-87 MG cells [3]; Table 5, 1.5 h) of 30.88±3.14, a Tumour uptake (U-87 MG cells [3]; Table 5, 4.0 h) of 31.09±3.88 and a Tumour uptake (U-87 MG cells [3]; Table 5, 24h) of 30.46±1.99. The Tumour uptake (U-87 MG cells [3]; Table 5, 48h) was 24.10±2.21, the Tumour uptake (U-87 MG cells [3]; Table 5, 72h) was 20.59±1.91 and the Tumour uptake (U-87 MG cells [3]; Table 5, 168h) was 12.81±0.90. For the same molecule, the “tumour/kidney ratio compared with control” value (U-87 MG cells [3]; versus 177Lu-FAP-2286, in words) was “higher”, the tissue to tissue ratio at 0.5 h [4] was 6.08 ± 1.62 and the tissue to tissue ratio at 1.5 h [4] was 8.66 ± 0.73. For the same molecule, the tissue to tissue ratio at 4 h [4] was 11.8 ± 2.62, the tissue to tissue ratio at 24 h [4] was 19.4 ± 5.84 and the “half-life (t1/2) compared with control” value [5] was “significantly longer”. The t1/2 [5] was 9.12 ± 4.69 h, the Cl_obs ([6]; SD rat, tail vein, blood) was 0.10±0.02 µCi/h*%ID/g and the Cmax ([6]; SD rat, tail vein, blood) was 0.89±0.21 %ID/g. It also gave an MRTlast ([6]; SD rat, tail vein, blood) of 15.49 ± 0.36 h, a Vz_obs ([6]; SD rat, tail vein, blood) of 2.21±0.38 µCi/%ID/g and a tissue uptake ([6]; AUCINF_obs, SD rat, tail vein, blood) of 5.28 ± 1.07. For the same molecule, the tissue uptake ([6]; AUClast, SD rat, tail vein, blood) was 5.04 ± 0.94 and the “mean residence time (MRTlast) compared with control” value ([6]; rats, versus 177Lu-FAP-2286, in words) was “significantly longer”.
With `CCCCCC(=O)N[C@H]1CSCc2cc(CSCCNC(=O)CN3CCN(CC(=O)O)CCN(CC(=O)O)CCN(CC(=O)O)CC3)cc(c2)CSC[C@@H](C(=O)O)NC(=O)[C@H](Cc2ccccc2)NC(=O)[C@H](CCC(N)=O)NC(=O)[C@H]([C@@H](C)O)NC(=O)[C@@H]2CCCN2C(=O)[C@@H]2CCCN2C1=O` [^177Lu-FAP-2286, metal not drawn] the “course of tumour uptake / intratumoral retention” value (U-87 MG cells [1]) was “rapid decrease in intratumoral retention after 4 hours”, the tumour inhibition rate (U-87 MG cells [2]; day 20 after administration, single dose of 0.8 mCi/animal) was 40.02% and the tumour size (U-87 MG cells [2]; day 20 after administration, single dose of 0.8 mCi/animal, tail vein) was 1833.89 ± 338.00 mm^3. For the same molecule, the median survival time (U-87 MG cells [2]; single dose of 0.8 mCi/animal) was 39 days, the tissue to tissue ratio at 0.5 h [4] was 3.29 ± 0.78 and the tissue to tissue ratio at 1.5 h [4] was 6.53 ± 1.12. It also gave a tissue to tissue ratio at 4 h [4] of 9.82 ± 4.79, a tissue to tissue ratio at 24 h [4] of 2.75 ± 0.9 and a Cl_obs [5] of 0.53±0.08 µCi/h*%ID/g. For the same molecule, the Cmax [5] was 0.73±0.27 %ID/g, the MRTlast [5] was 2.52 ± 0.34 h and the Vz_obs [5] was 1.50±0.97 µCi/%ID/g. For the same molecule, the t1/2 [5] was 1.29 ± 0.43 h.
